From patent US20140228427A1, “PHARMACEUTICAL COMPOSITION CONTAINING WOGONIN AS AN ACTIVE INGREDIENT FOR PREVENTING OR TREATING ASTHMA” (KOREA RESEARCH INSTITUTE OF BIOSCIENCE AND BIOTECHNOLOGY, priority 2011, published 2014)

Columns and labels:
IgE = experiment: Measurement of IgE in serum and bronchoalveolar lavage fluid by enzyme immunoassay; type: in vivo, Balb/c mice; conditions: mean±S.E.; for Total IgE Conc. in bronchoalveolar lavage fluid: OVA group 19.02 ± 2.43; for Total IgE Conc. in Serum: OVA group 23139.51 ± 484.45
Method: (§1) To investigate the effect of the Wogonin of the present invention on asthma, 6-week old female Balb/c mice in the weight of about 20 g were used as test animals. After spending one week for adaptation, basic physical examination was performed to select normal ones.
(§2) The test animal was sensitized with 200 μl of phosphate buffer (pH 7.4) containing 2 mg of aluminum hydroxide (A8222, Sigma, St. Louis, Mo.) and 20 μg of ovalbumin (A5503, Sigma, St. Louis, Mo.) by intraperitoneal injection at 2 weeks interval. 1% ovalbumin was inhaled in the mouse for 30 minutes by using an ultrasonic nebulizer from the 28th day to the 30th day after the first intraperitoneal injection of ovalbumin (OVA).
(§3) 24 hours after the final antigen treatment, airway hypersensitivity was measured. 48 hours later, a lethal dose of pentobarbital (Entobar, Hanlim Pharm. Co. Ltd., Seoul, Korea) was administered to the mouse. Body weight was measured and tracheostomy was performed. Bronchoalveolar lavage was performed with 1.2 ml of saline, followed by sampling. The normal control group (NC) was administered with ovalbumin but not inhaled, the asthma induced group (OVA) was administered with ovalbumin and inhaled to induce bronchial asthma, the comparative group 1 (DEXA) was orally administered with dexamethasone (3 mg/kg, PO: D4902, Sigma, St. Louis, Mo.) one hour before inhaling ovalbumin, the comparative group 2 (Monte) was orally administered with montelukast (30 mg/kg, PO) one hour before inhaling ovalbumin, and the experimental group (Wogonin) was orally administered with the Wogonin of Example 1 (30 mg/kg, PO) one hour before inhaling ovalbumin. Each group was composed of 5 white mice.
To investigate the effect of the Wogonin of the present invention on asthma, the inventors measured IgE concentration in serum and bronchoalveolar lavage fluid which is related to the severity of asthma by enzyme immunoassay.
Serum and bronchoalveolar lavage fluid taken from each group were loaded in […] plate on which 0.1M NaHCO3 buffer (pH 8.3) containing 20 μg/ml of ovalbumin (OVA) was coated at 4° C. for overnight. Non-specific reaction was blocked by PBS containing 1% bovine serum albumin. Serum sample was diluted at the ratio of 1:400, followed by reaction at room temperature for 2 hours.
After washing the plate well, the sample was reacted with anti-mouse IgE monoclonal antibody diluted at the ratio of 1:300 for 2 hours. HRP-conjugated goat anti-rat IgG polyclonal A was diluted at the ratio of 1:4000, which was added thereto for further reaction at room temperature for 1 hour, followed by washing.
For color development, 3.3′5.5′-tetramethylbenzidine substrate was added, followed by measuring OD650.

IL-4 = experiment: Analysis of cytokine mRNA (RT-PCR), IL-4; type: in vivo, Balb/c mice; conditions: for Relative Densitometric Value, RDV, IL-4: NC = 100%, OVA group 159.91 ± 14.87
Method: as §1, §2, §3
(§4) To investigate the effect of the Wogonin of the present invention on asthma, asthma related cytokine mRNA was measured.
(§5) RNA was isolated from the lung by using trizol (Invitrogen) in order to measure the expressions of Th2 cytokines such as IL-4, IL-6, and IL-13 in the supernatant of bronchoalveolar lavage fluid taken from each group, followed by reverse transcriptase polymerase chain reaction (quantitative RT-PCR, Promega, Wis.). When the lowest expression was indicated as 1, relative densitometric value (RDV) was produced by that to evaluate the expression inhibition effect.

IL-6 = experiment: Analysis of cytokine mRNA (RT-PCR), IL-6; type: in vivo, Balb/c mice; conditions: for Relative Densitometric Value, RDV, IL-6: NC = 100%, OVA group 128.20 ± 6.51
Method: as §1, §2, §3, §4, §5

[1] = system: airway hypersensitivity in ovalbumin-sensitized Balb/c mice; experiment: Measurement of airway hypersensitivity (Penh, methacholine inhalation, one chamber plethysmography); type: in vivo; conditions: methacholine 12.5 mg/ml; OVA group 2.2917 ± 0.3070; mean±S.E.
[2] = system: airway hypersensitivity in ovalbumin-sensitized Balb/c mice; experiment: as above; type: in vivo; conditions: for Penh value: mean±S.E.
Method: as §1, §2, §3
The effect of the Wogonin of the present invention on asthma related airway hypersensitivity was evaluated by measuring enhanced pause (Penh) which presents the grade of airway obstruction calculated by measuring airway resistance using one chamber plethysmorgraphy (All Medicus, Seoul). For the measurement of Penh, base value was measured under normal breathing condition and then PBS was inhaled by using an ultrasonic nebulizer for 3 minutes, followed by measuring for 3 minutes. Then, methacholine (A2251, Sigma, St. Louis, Mo.), the […], which is generally used to diagnose bronchial asthma, was inhaled to the animal with raising the concentration gradually (12, 25, and 50 mg/ml), followed by measuring Penh. The ratio of Penh increased over the concentrations of methacholine inhaled was presented as % and baseline Penh (saline challenge) was presented as 100%.

[3] = system: inflammatory cells (eosinophils and other inflammatory cells) in bronchoalveolar lavage fluid; experiment: Analysis of inflammatory cells in bronchoalveolar lavage fluid; type: in vivo, Balb/c mice; conditions: for Cell Number, other cells: OVA group 452.55 ± 93.48
Method: as §1, §2, §3
To investigate the effect of the Wogonin of the present invention on asthma, the present inventors measured the increase or decrease of inflammatory cell number which is believed to be involved in asthma.
As soon as bronchoalveolar lavage fluid was recovered from each group, it was stained with Trypan blue. Then, the number of cells, except dead cells, was counted by hemocytometer. The sample was smeared with Cytospin II, followed by Diff-Quick staining (Sysmex, Switzerland) to calculate the numbers of eosinophils and other inflammatory cells.

IL-13 = experiment: Analysis of cytokine mRNA (RT-PCR), IL-13; type: in vivo, Balb/c mice; conditions: for Relative Densitometric Value, RDV, IL-13: NC = 100%, OVA group 187.35 ± 7.49
Method: as §1, §2, §3, §4, §5

reactive oxygen species = experiment: Measurement of reactive oxygen species generation (DCFH-DA fluorescence) in bronchoalveolar lavage fluid; type: in vivo, Balb/c mice; conditions: for Reactive oxygen species generation, DCF fluorescence: NC = 100%, OVA group 192.89 ± 27.36; for reduction of reactive oxygen species generation compared with the asthma induced group: vs asthma induced group
Method: as §1, §2, §3
The increase of oxidative stress results in the decrease of reaction to steroids. To investigate the effect of the Wogonin of the present invention on asthma, the present inventors measured the generation of reactive oxygen species which is apparent in asthma like in other inflammatory diseases.
A portion of bronchoalveolar lavage fluid of each group was washed with PBS, to which 10 μM of 2,7-Dichlorofluorescein diacetate (DCFH-DA, 35845, Sigma, St. Louis, Mo.), one of the fluorescent reagents, was added. The mixture stood at room temperature for 10 minutes in the darkness, and then measured fluorescence with a spectrofluorometer (Ex=480 nm Em=522 nm).

[4] = system: infiltration of inflammatory cells around bronchiolus and blood vessels; experiment: Histopathological test of the lung (H&E, inflammatory index); type: in vivo, Balb/c mice; conditions: index scale 0-4; for Inflammatory Index around bronchiolus: OVA group 3.60 ± 0.22; for Inflammatory Index around blood vessels: OVA group 3.80 ± 0.18
Method: as §1, §2, §3
The infiltration of inflammatory cells including eosinophils, neutrophils, and macrophages is observed in the bronchus sensitized with an antigen. To investigate the effect of the Wogonin of the present invention on asthma, the inventors performed histopathological test with the lung without bronchoalveolar lavage.
The lung extracted without bronchoalveolar lavage from each group was fixed with formalin and embedded in paraffin. Then, 4 μm thick permanent tissue sections were prepared, followed by H&E staining. Upon completion of H&E staining, inflammatory index was measured from 5 random regions of each section, and then mean value was calculated.

[5] = Body weight of ovalbumin-induced asthma mice; type: in vivo, Balb/c mice; conditions: OVA asthma induced mice; Wogonin 30 mg/kg PO, dexamethasone 3 mg/kg PO, montelukast 30 mg/kg PO; asthma induced group 19.72±0.53, normal control 21.60±0.25
Method: as §1, §2, §3

[6] = methacholine 0 mg/ml, OVA group 0.6299 ± 0.0617
[7] = methacholine 25 mg/ml, OVA group 6.8642 ± 0.8313
[8] = methacholine 50 mg/ml, OVA group 9.1854 ± 1.6230

| SMILES | Total IgE Conc. in bronchoalveolar lavage fluid (IgE) | Total IgE Conc. in Serum (IgE) | Relative Densitometric Value, RDV, IL-4 (IL-4) | Relative Densitometric Value, RDV, IL-6 (IL-6) | Penh value [1] | Penh value [2, 6] | Penh value [2, 7] | Penh value [2, 8] | Cell Number, eosinophils ([3]; OVA group 71.75 ± 4.63) | Cell Number, other cells [3] | Cell Number, total cells ([3]; OVA group 524.30 ± 43.22) | Relative Densitometric Value, RDV, IL-13 (IL-13) | Reactive oxygen species generation, DCF fluorescence (reactive oxygen species) | reduction of reactive oxygen species generation compared with the asthma induced group (reactive oxygen species) | Inflammatory Index around bronchiolus [4] | Inflammatory Index around blood vessels [4] | average body weight [5] | further results |
| --- | --- | --- | --- | --- | --- | --- | --- | --- | --- | --- | --- | --- | --- | --- | --- | --- | --- | --- |
| C[C@@H]1C[C@H]2[C@@H]3CCC4=CC(=O)C=C[C@]4(C)[C@@]3(F)[C@@H](O)C[C@]2(C)[C@@]1(O)C(=O)CO [DEXA, dexamethasone] | 10.15 ± 1.38 ng/mL | 15991.36 ± 1194.92 ng/mL | 139.60 ± 13.34% | 121.37 ± 6.78% | 1.6750 ± 0.0820 | 0.6486 ± 0.1526 | 1.9963 ± 0.1577 | 2.7864 ± 0.4293 | 8.24 ± 1.31 ×10^3 cell/mouse | 81.00 ± 10.40 ×10^3 cell/mouse | 89.24 ± 6.98 ×10^3 cell/mouse | 176.55 ± 16.13% | 116.55 ± 9.28% | 39.58% | 1.75±0.19 | 1.50 ± 0.22 | 21.04 ± 0.35 g | Cell Number, eosinophils ([3]; OVA group 71.75 ± 4.63, listed as dexamethasone): 8.24±1.31 ×10^3 cell/mouse; Cell Number, total cells ([3]; OVA group 524.30 ± 43.22, listed as dexamethasone): 89.24±6.98 ×10^3 cell/mouse; Inflammatory Index around blood vessels ([4]; listed as comparative control group 1): 1.50±0.22 |
| CC(C)(O)c1ccccc1CC[C@@H](SCC1(CC(=O)O)CC1)c1cccc(/C=C/c2ccc3ccc(Cl)cc3n2)c1 [Monte, montelukast] | 10.15 ± 1.58 ng/mL | 17176.54 ± 2542.98 ng/mL | 138.86 ± 19.52% | 112.39 ± 7.16% | 1.5249 ± 0.2432 | 0.4525 ± 0.0313 | 2.1006 ± 0.4758 | 2.3576 ± 0.1741 | 27.88 ± 2.80 ×10^3 cell/mouse | 130.12 ± 9.22 ×10^3 cell/mouse | 167.68 ± 8.80 ×10^3 cell/mouse | 157.67 ± 16.60% | 104.48 ± 9.80% | 45.84% | 2.25±0.22 | 2.50 ± 0.25 | 21.08 ± 0.36 g | Cell Number, eosinophils ([3]; OVA group 71.75 ± 4.63, listed as montelukast): 27.88±2.80 ×10^3 cell/mouse; Cell Number, total cells ([3]; OVA group 524.30 ± 43.22, listed as montelukast): 167.68±8.80 ×10^3 cell/mouse; Inflammatory Index around blood vessels ([4]; listed as comparative control group 2): 0.50±0.25 |
| COc1c(O)cc(O)c2c(=O)cc(-c3ccccc3)oc12 [Wogonin] | 12.10 ± 1.87 ng/mL | 19418.52 ± 1332.101 ng/mL | 118.11 ± 29.80% | 106.87 ± 10.47% | 1.7059 ± 0.3028 | 0.4261 ± 0.0069 | 2.0166 ± 0.2248 | 2.6055 ± 0.2280 | 32.24±8.84 ×10^3 cell/mouse | 140.28 ± 26.24 ×10^3 cell/mouse | 172.52±29.29 ×10^3 cell/mouse | 143.68 ± 14.08% | 60.91 ± 4.14% | 68.42% | 1.00±0.28 | 1.40±0.22 | 21.92 ± 0.43 g | suppression of IL-4 expression compared with the asthma induced group (IL-4; lung, vs asthma induced group): 26.14%; suppression of IL-6 expression compared with the asthma induced group (IL-6; lung, vs asthma induced group): 16.64%; Penh value over the increase of methacholine concentration ([2]; range over methacholine concentrations): 1.7059-2.6055; suppression of IL-13 expression compared with the asthma induced group (IL-13; lung, vs asthma induced group): 23.30% |
